Data published in paper PMC4167585 (Cell, 2014).

Tests used:
[1] = molecular target: T1, human microsomal GST (MGST1) (Homo sapiens, UniProt P10620); assay: GST activity toward CDNB; assay type: biochemical; conditions: GSH co-substrate
T1 sequence (P10620 1-155): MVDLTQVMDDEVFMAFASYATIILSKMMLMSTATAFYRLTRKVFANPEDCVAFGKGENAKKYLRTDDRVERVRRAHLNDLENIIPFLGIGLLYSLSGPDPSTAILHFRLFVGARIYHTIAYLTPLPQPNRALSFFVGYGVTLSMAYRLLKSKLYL

[2] = molecular target: EXP1 (Plasmodium falciparum, UniProt Q8IIF0); assay: inhibition of GSH-CDNB conjugation, Dixon plot; assay type: biochemical
[3] = tested on: C=CC1=C(C)C2=Cc3c(C=C)c(C)c4[n]3[Fe+][n]3c(c(C)c(CCC(=O)O)c3=CC3=NC(=C4)C(C)=C3CCC(=O)O)=CC1=N2; assay: purified protein; conditions: 2 mM GSH, 100 nM enzyme, pH 6.5, 0.1% Triton X-100

O=[N+]([O-])c1ccc(Cl)c([N+](=O)[O-])c1 [1-chloro-2,4-dinitrobenzene]
GST activity toward CDNB [1]: comparable to that of the human microsomal GST (MGST1, Figure S3D-F)

C=CC1=C(C)C2=Cc3c(C=C)c(C)c4[n]3[Fe+][n]3c(c(C)c(CCC(=O)O)c3=CC3=NC(=C4)C(C)=C3CCC(=O)O)=CC1=N2 [hematin]
Ki [2]: 170 nM

EXP1 (Plasmodium falciparum 3D7)
Km [3]: 0.251 µM | kcat [3]: 7.7 s⁻¹
